Measured values reported in publication PMC4220862 (Inorganic Chemistry, 2014).

What was measured:
[1] = target: T1, amyloid β peptide (Aβ40 fibrils) (Homo sapiens, UniProt P05067); test: ThT fluorescence competition assay with Aβ[…] fibrils; assay type: binding
[2] = target: T1, amyloid β peptide (Aβ40 fibrils); test: direct fluorescence titration of Aβ[…] fibrils, one-site fit; assay type: binding

T1 sequence (P05067 672-711): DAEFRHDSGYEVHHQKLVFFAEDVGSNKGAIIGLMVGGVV

| Ki [1] | Kd [2] | SMILES |
| --- | --- | --- |
| 15 ± 10 nM | – | COc1cccc(-c2nc3ccccc3s2)c1O [L2, 2-(2-hydroxy-3-methoxyphenyl)benzothiazole] |
| – | 4700 ± 300 nM | CCN(CC)c1ccc(-c2nc3ccccc3s2)c(O)c1 [L1, 2-[2-hydroxy-4-(diethylamino)phenyl]benzothiazole] |
